Among the data in patent publication EP3478687B1 (Daewoong Pharmaceutical Co., Ltd., priority 2016, dated 2018) are IC50 values, retold here.

Experiment [1] addresses T1, Recombinant purified human BTK (Homo sapiens, UniProt Q06187).
T1 construct: purchased Promega V9071
Nature of the experiment: BTK kinase inhibitory activity, ADP-Glo kinase assay (Promega V9071). The experiment is classed as biochemical. The following applies: ATP 10 uM, 8 ng BTK per reaction, 1 hour 30 °C, chemiluminescence. The method in brief:
(§1)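 IC50 values come from ADP-Glo luminescence after 1 h kinase reactions at 30 °C in 1% DMSO on 0.2 µg/µL Poly(Glu4,Tyr1) substrate. ATP was 10 µM for BTK (8 ng, buffer containing MnCl2) and 5 µM for JAK3 (4 ng), in Tris-Cl pH 7.5/MgCl2/BSA/DTT.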
(In general: In ADP-Glo the light output rises with the ADP produced.)

The target of experiment [2] is T2, Recombinant purified human JAK3 (Homo sapiens, UniProt P52333).
T2 construct: purchased Promega V9441
T2 sequence (P52333 1-1124): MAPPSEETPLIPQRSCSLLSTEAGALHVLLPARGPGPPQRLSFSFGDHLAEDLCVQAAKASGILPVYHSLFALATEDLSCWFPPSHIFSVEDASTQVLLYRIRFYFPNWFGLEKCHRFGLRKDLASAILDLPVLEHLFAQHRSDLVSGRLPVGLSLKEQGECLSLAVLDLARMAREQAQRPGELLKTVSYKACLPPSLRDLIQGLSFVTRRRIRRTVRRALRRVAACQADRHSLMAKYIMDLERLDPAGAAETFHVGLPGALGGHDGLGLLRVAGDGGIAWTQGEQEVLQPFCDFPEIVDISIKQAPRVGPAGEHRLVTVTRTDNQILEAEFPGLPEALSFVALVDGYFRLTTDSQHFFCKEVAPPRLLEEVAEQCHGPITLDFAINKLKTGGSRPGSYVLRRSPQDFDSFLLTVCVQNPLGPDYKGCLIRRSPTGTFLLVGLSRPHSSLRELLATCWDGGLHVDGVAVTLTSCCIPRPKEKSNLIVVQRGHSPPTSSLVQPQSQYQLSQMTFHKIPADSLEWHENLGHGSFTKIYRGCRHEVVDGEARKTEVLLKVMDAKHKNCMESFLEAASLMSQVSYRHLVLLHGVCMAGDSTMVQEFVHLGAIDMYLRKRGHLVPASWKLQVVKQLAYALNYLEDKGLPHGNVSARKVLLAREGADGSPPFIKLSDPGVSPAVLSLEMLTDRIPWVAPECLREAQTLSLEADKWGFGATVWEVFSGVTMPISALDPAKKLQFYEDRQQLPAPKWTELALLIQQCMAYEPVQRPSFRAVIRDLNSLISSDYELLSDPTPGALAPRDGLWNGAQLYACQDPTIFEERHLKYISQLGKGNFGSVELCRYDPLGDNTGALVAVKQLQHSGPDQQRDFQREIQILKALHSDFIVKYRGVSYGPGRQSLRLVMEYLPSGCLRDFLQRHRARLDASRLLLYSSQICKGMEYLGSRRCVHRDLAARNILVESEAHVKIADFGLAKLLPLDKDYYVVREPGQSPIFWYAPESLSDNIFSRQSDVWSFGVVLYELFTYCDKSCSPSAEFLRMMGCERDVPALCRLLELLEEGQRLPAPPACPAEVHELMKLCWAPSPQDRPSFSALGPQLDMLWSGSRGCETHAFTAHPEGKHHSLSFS
Nature of the experiment: JAK3 kinase inhibitory activity, ADP-Glo kinase assay (Promega V9441). The experiment is classed as biochemical. To be noted: ATP 5 uM, 4 ng JAK3 per reaction, 1 hour 30 °C, chemiluminescence. The method in brief: as §1

T1 sequence (Q06187 whole entry): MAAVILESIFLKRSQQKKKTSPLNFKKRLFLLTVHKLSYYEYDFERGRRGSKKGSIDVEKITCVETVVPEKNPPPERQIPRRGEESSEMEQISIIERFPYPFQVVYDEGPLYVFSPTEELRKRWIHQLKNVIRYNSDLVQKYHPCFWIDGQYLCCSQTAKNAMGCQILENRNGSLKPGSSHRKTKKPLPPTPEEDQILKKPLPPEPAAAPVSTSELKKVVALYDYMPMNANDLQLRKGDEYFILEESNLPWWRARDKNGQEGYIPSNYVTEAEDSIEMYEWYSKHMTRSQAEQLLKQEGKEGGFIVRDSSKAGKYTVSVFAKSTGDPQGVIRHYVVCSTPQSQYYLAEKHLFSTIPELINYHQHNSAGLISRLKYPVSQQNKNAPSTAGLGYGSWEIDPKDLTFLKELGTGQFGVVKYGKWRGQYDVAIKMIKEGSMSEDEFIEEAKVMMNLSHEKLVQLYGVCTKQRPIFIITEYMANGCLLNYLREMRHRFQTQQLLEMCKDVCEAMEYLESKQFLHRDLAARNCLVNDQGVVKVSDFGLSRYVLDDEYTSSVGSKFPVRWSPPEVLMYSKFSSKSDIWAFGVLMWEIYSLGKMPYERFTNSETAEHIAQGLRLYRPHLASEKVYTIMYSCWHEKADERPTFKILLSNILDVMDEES

As for `C=CC(=O)N1CCC[C@@H](Nc2nc(Nc3cnn(Cc4cccc(OC)c4)c3)nc3[nH]nc(Cl)c23)C1` [Example 58, (R)-1-(3-(3-chloro-6-(1-(3-methoaybenzyl)-1H-pyrazol-4-ylamino)-1H-pyrazolo[3,4-d]pyrimidin-4-ylamino)piperidin-1-yl)prop-2-en-1-one], the IC50 in experiment [1] was found to be 1.8 nM; in experiment [2] it was 0.5 nM.

Turning to `C=CC(=O)N1CCC[C@@H](Nc2nc(Nc3cnoc3)nc3[nH]nc(Cl)c23)C1` [Example 59, (R)-1-(3-(3-chloro-6-(isoxazol-4-ylamino)-1H-pyrazolo[3,4-d]pyrimidin-4-ylamino)piperidin-1-yl)prop-2-en-1-one], the IC50 in experiment [1] amounted to 1.8 nM; in experiment [2], 1.4 nM.

As for `C=CC(=O)N1CCC[C@@H](Nc2nc(Nc3cnn(CC(=O)NC)c3)nc3[nH]cc(Cl)c23)C1` [Example 60, (R)-2-(4-((4-((1-acryloylpiperidin-3-yl)amino)-5-chloro-7H-pyrrolo[2,3-d]pyrimidin-2-yl)amino)-lH-pyrazol-1-yl)-N-methylacetamide], the IC50 in experiment [1] stood at 1.7 nM; in experiment [2], 0.2 nM.

For `C=CC(=O)N1CCC[C@@H](Nc2nc(Nc3ccc(N4CCOCC4)cc3)nc3[nH]cc(Cl)c23)C1` [Example 61, (R)-1-(3-((5-chloro-2-((4-morpholinophenyl)amino)-7H-pyrrolo[2,3-d]pyrimidin-4-yl)amino)piperidin-1-yl)prop-2-en-1-one], the figures for the half-inhibitory concentration (IC50) in experiment [1] and in experiment [2] were 1.7 nM and 1.1 nM, respectively.

Regarding `C=CC(=O)N1CCC[C@@H](Nc2nc(Nc3cnn(C4CC4)c3)nc3[nH]cc(Cl)c23)C1` [Example 62, (R)-1-(3-((5-chloro-2-((1-cyclopropyl-1H-pyrazol-4-yl)amino)-7H-pyrrolo[2,3-d]pyrimidin-4-yl)amino)piperidin-1-yl)prop-2-en-1-one], the IC50 in experiment [1] was found to be 1.7 nM; in experiment [2], 0.2 nM.

`C=CC(=O)N1CCC[C@@H](Nc2nc(Nc3cnn(CC(C)C)c3)nc3[nH]cc(Cl)c23)C1` [Example 63, (R)-1-(3-((5-chloro-2-((1-isobutyl-1H-pyrazol-4-yl)amino)-7H-pyrrolo[2,3-d]pyrimidin-4-yl)amino)piperidin-1-yl)prop-2-en-1-one]: the figures for the IC50 in experiment [1] and in experiment [2] were 1.7 nM and 0.3 nM, respectively.

For `C=CC(=O)N1CCC[C@@H](Nc2nc(Nc3cnn(C(F)F)c3)nc3[nH]nc(Cl)c23)C1` [Example 64, (R)-1-(3-((3-chloro-6-((1-(difluoromethyl)-1H-pyrazol-4-yl)amino)-1H-pyrazolo[3,4-d]pyrimidin-4-yl)amino)piperidin-1-yl)prop-2-en-1-one], the values for the IC50 in experiment [1] and in experiment [2] were 1.7 nM and 0.7 nM, respectively.

With `C=CC(=O)N1CCC[C@@H](Nc2nc(Nc3cnn(CC(C)C)c3)nc3[nH]ncc23)C1` [Example 65, (R)-1-(3-((6-((1-isobutyl-1H-pyrazol-4-yl)amino)-1H-pyrazolo[3,4-d]pyrimidin-4-yl)amino)piperidin-1-yl)prop-2-en-1-one], the IC50 in experiment [1] was determined as 1.7 nM; in experiment [2], 5.5 nM.

As for `C=CC(=O)N1CCC[C@@H](Nc2nc(Nc3cnn(C(C)(C)C)c3)nc3[nH]ncc23)C1` [Example 66, (R)-1-(3-((6-((1-(tert-butyl)-1H-pyrazol-4-yl)amino)-1H-pyrazolo [3,4-d]pyrimidin-4-yl)amino)piperidin-1-yl)prop-2-en-1-one], the IC50 is 1.7 nM in experiment [1] and 3.7 nM in experiment [2].

Regarding `C=CC(=O)N1CCC[C@@H](Nc2nc(Nc3cnn(C4CC4)c3)nc3[nH]ncc23)C1` [Example 67, (R)-1-(3-((6-((1-cyclopropyl-1H-pyrazol-4-yl)amino)-1H-pyrazolo [3,4-d]pyrimidin-4-yl)amino)piperidin-1-yl)prop-2-en-1-one], the results for the IC50 in experiment [1] and in experiment [2] were 1.7 nM and 5.7 nM, respectively.

Regarding `C=CC(=O)N1CCC[C@@H](Nc2nc(Nc3ccc(C(=O)N4CCOCC4)cc3)nc3[nH]cc(Cl)c23)C1` [Example 68, (R)-1-(3-((5-chloro-2-((4-(morpholine-4-carbonyl)phenyl)amino)-7H-pyrrolo[2,3-d]pyrimidin-4-yl)amino)piperidin-1-yl)prop-2-en-1-one], the figures for the IC50 in experiment [1] and in experiment [2] were 12.1 nM and 0.7 nM, respectively.

For `C=CC(=O)N1CCC[C@@H](Nc2nc(Nc3cnn(C)c3)nc3[nH]cc(Cl)c23)C1` [Example 69, (R)-1-(3-((5-chloro-2-((1-methyl-1H-pyrazol-4-yl)amino)-7H-pyrrolo[2,3-d]pyrimidin-4-yl)amino)piperidin-1-yl)prop-2-en-1-one], the IC50 in experiment [1] is 8.6 nM; in experiment [2] it was 0.3 nM.

Consider `C=CC(=O)N1CCC[C@@H](Nc2nc(Nc3cnn(C(C)(C)C)c3)nc3[nH]cc(Cl)c23)C1` [Example 70, (R)-1-(3-((2-((1-(tert-butyl)-1H-pyrazol-4-yl)amino)-5-chloro-7H-pyrrolo[2,3-d]pyrimidin-4-yl)amino)piperidin-1-yl)prop-2-en-1-one], for which the IC50 was found to be 2.3 nM in experiment [1] and 0.2 nM in experiment [2].

As to `C=CC(=O)N1CCC[C@@H](Nc2nc(Nc3cnn(C4CCOCC4)c3)nc3[nH]ncc23)C1` [Example 71, (R)-1-(3-((6-((1-(tetrahydro-2H-pyran-4-yl)-1H-pyrazol-4-yl)amino)-1H-pyrazolo[3,4-d]pyrimidin-4-yl)amino)piperidin-1-yl)prop-2-en-1-one], the IC50 came to 1.3 nM in experiment [1] and 2.8 nM in experiment [2].

`C=CC(=O)N1CCC[C@@H](Nc2nc(Nc3cnn(CCN4CCOCC4)c3)nc3[nH]ncc23)C1` [Example 72, (R)-1-(3-((6-((1-(2-morpholinoethyl)-1H-pyrazol-4-yl)amino)-1H-pyrazolo[3,4-d]pyrimidin-4-yl)amino)piperidin-1-yl)prop-2-en-1-one]: the figures for the IC50 in experiment [1] and in experiment [2] were 1.1 nM and 2.2 nM, respectively.

In the case of `C=CC(=O)N1CCC[C@@H](Nc2nc(Nc3cnn(CCC)c3)nc3[nH]ncc23)C1` [Example 73, (R)-1-(3-((6-((1-propyl-1H-pyrazol-4-yl)amino)-1H-pyrazolo[3,4-d]pyrimidin-4-yl)amino)piperidin-1-yl)prop-2-en-1-one], the values for the IC50 in experiment [1] and in experiment [2] were 1.1 nM and 4.4 nM, respectively.

As to `C=CC(=O)N1CCC[C@@H](Nc2nc(Nc3cnn(CCOC)c3)nc3[nH]ncc23)C1` [Example 74, (R)-1-(3-((6-((1-(2-methoayethyl)-1H-pyrazol-4-yl)amino)-1H-pyrazolo[3,4-d]pyrimidin-4-yl)amino)piperidin-1-yl)prop-2-en-1-one], the IC50 in experiment [1] stood at 1.7 nM; in experiment [2], 5.4 nM.

Regarding `C=CC(=O)N1CCC[C@@H](Nc2nc(Nc3cc(C)ns3)nc3[nH]ccc23)C1` [Example 75, (R)-1-(3-((2-((3-methylisothiazol-5-yl)amino)-7H-pyrrolo[2,3-d]pyrimidin-4-yl)amino)piperidin-1-yl)prop-2-en-1-one], the IC50 amounted to 4.1 nM in experiment [1] and 0.2 nM in experiment [2].

For the molecule `C=CC(=O)N1CC[C@@H](F)[C@@H](Nc2nc(Nc3cnn(CC)c3)nc3[nH]ccc23)C1` [Example 76, 1-((3S,4R)-3-((2-((1-ethyl-1H-pyrazol-4-yl)amino)-7H-pyrrolo[2,3-d]pyrimidin-4-yl)amino)-4-fluoropiperidin-1-yl)prop-2-en-1-one], the IC50 was found to be 1 nM in experiment [1] and 0.3 nM in experiment [2].

For the molecule `C=CC(=O)N1CC[C@@H](F)[C@@H](Nc2nc(Nc3cnn(CC)c3)nc3[nH]ncc23)C1` [Example 77, 1-((3S,4R)-3-((6-((1-ethyl-1H-pyrazol-4-yl)amino)-1H-pyrazolo [3,4-d]pyrimidin-4-yl)amino)-4-fluoropiperidin-1-yl)prop-2-en-1-one], the IC50 in experiment [1] was found to be 1.1 nM; in experiment [2] it was 6 nM.

With `C=CC(=O)N1CCC[C@@H](Nc2nc(Nc3cnn(C4CC4)c3)nc3[nH]cc(C)c23)C1` [Example 78, (R)-1-(3-((2-((1-cyclopropyl-1H-pyrazol-4-yl)amino)-5-methyl-7H-pyrrolo[2,3-d]pyrimidin-4-yl)amino)piperidin-1-yl)prop-2-en-1-one], the values for the IC50 in experiment [1] and in experiment [2] were 11.5 nM and 0.7 nM, respectively.

What is called IC50 is the point on the concentration scale where inhibition reaches its midpoint.
